Laboratory results reported in the supplement of paper PMC10307832.

Tests used:
Assay in all cases: relative viability (nuclei count vs DMSO), 5 days (fraction); higher = more cells survive
[1] = compound: CCOC(=O)CCNc1cc(N2CCc3ccccc3CC2)nc(-c2ccccn2)n1 [GSK-J4] + O=C(c1cc(Cc2n[nH]c(=O)c3ccccc23)ccc1F)N1CCN(C(=O)C2CC2)CC1 [Olaparib] (partner 8 µM)
Outline: (§1)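 Lung cancer cell lines in 1536-well plates got either a single drug or a fixed anchor-drug dose together with five library-drug doses (not always all listed) in √10 steps, by pin tool, on the day after seeding. Nuclei were counted after 5 days, and relative viability is the treated-to-vehicle ratio of nuclei counts. Values are medians of duplicate plates.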

[2] = compound: CCOC(=O)CCNc1cc(N2CCc3ccccc3CC2)nc(-c2ccccn2)n1 [GSK-J4] + Nc1nc2[nH]cc(CCc3ccc(C(=O)N[C@@H](CCC(=O)O)C(=O)O)cc3)c2c(=O)[nH]1 [Pemetrexed] (partner 0.2 µM)
Outline: as §1

[3] = compound: CN1CCC(CC1)OC2=CC(=C(C=C2)NC3=NC=C4C(=N3)N(C(=O)N4C)C5CCCC5)OC [AZ3146] + O=C(CCCCCCC(=O)Nc1ccccc1)NO [Vorinostat] (partner 1 µM)
Outline: as §1

[4] = compound: CN1CCC(CC1)OC2=CC(=C(C=C2)NC3=NC=C4C(=N3)N(C(=O)N4C)C5CCCC5)OC [AZ3146] + CS(=O)(=O)N1CCN(Cc2cc3nc(-c4cccc5[nH]ncc45)nc(N4CCOCC4)c3s2)CC1 [Pictilisib] (partner 1 µM)
Outline: as §1

Cell Line	relative viability ([1]; first compound 0.5 µM)	relative viability ([1]; first compound 1.581 µM)	relative viability ([1]; first compound 5 µM)	relative viability ([1]; first compound 15.81 µM)	relative viability ([1]; first compound 50 µM)	relative viability ([2]; first compound 0.5 µM)	relative viability ([2]; first compound 1.581 µM)	relative viability ([2]; first compound 5 µM)	relative viability ([2]; first compound 15.81 µM)	relative viability ([2]; first compound 50 µM)	relative viability ([3]; first compound 0.08 µM)	relative viability ([3]; first compound 0.253 µM)	relative viability ([3]; first compound 0.8 µM)	relative viability ([3]; first compound 2.53 µM)	relative viability ([3]; first compound 8 µM)	relative viability ([4]; first compound 0.08 µM)	relative viability ([4]; first compound 0.253 µM)	relative viability ([4]; first compound 0.8 µM)	relative viability ([4]; first compound 2.53 µM)	relative viability ([4]; first compound 8 µM)
201T	0.81	0.581	0.831	0.797	0.81	0.353	0.301	0.312	0.33	0.364	0.948	0.928	0.917	1.05	0.894	0.634	0.643	0.656	0.707	0.596
A549	0.32	–	0.29	0.31	0.392	–	–	–	–	–	–	–	–	–	–	0.475	0.503	0.483	0.404	0.139
A-427	0.714	0.701	–	0.66	0.295	0.932	0.654	–	0.883	0.463	0.763	0.881	0.833	0.809	0.593	0.826	0.626	0.65	0.519	0.675
ABC-1	0.981	0.929	0.605	0.651	0.488	–	–	–	–	–	0.618	1.02	1.53	1.2	1.16	0.566	0.866	0.687	0.878	0.723
BEN	1.18	0.99	0.776	0.954	0.779	0.933	0.759	0.501	0.731	0.573	–	0.54	0.608	0.558	0.588	–	0.51	0.403	0.533	0.573
CAL-12T	0.668	0.63	0.772	0.673	0.548	1.2	1.15	1.4	1.27	0.946	0.695	0.743	0.832	0.778	0.553	0.334	–	0.475	0.554	0.481
COR-L23	0.279	0.311	–	0.306	0.293	0.185	0.192	–	0.212	0.207	0.38	0.536	0.374	0.415	0.313	0.643	0.922	0.824	0.77	0.667
COR-L 105	0.701	–	0.641	0.672	0.764	0.826	–	1.12	1.09	0.937	0.819	0.887	0.902	0.879	0.487	0.38	0.406	0.419	0.356	0.237
Calu-6	0.559	0.567	0.587	0.53	0.608	–	–	–	–	–	–	–	–	–	–	0.871	0.984	0.865	0.859	0.515
ChaGo-K-1	0.384	–	0.441	0.354	0.275	0.259	–	0.247	0.259	0.266	0.711	0.691	0.703	0.718	0.521	0.746	0.668	0.645	0.824	0.596
EBC-1	0.603	0.567	0.676	0.655	0.453	–	–	–	–	–	–	–	–	–	–	0.366	0.412	0.351	0.388	0.244
EKVX	0.867	–	0.859	0.681	0.703	0.351	–	0.426	0.418	0.315	0.608	0.81	0.818	0.885	0.681	0.417	0.433	0.259	0.407	0.545
EMC-BAC-2	0.403	0.461	0.407	0.444	0.391	0.414	0.362	–	0.441	0.477	–	–	0.519	0.534	0.368	0.524	0.56	0.564	0.607	0.597
EPLC-272H	0.722	0.825	0.676	0.652	0.289	0.36	0.294	0.319	0.295	0.3	0.297	0.52	0.299	0.499	0.329	0.274	0.322	0.3	0.263	0.265
H3255	0.553	0.521	0.523	0.445	0.362	0.649	0.551	0.491	0.503	0.502	0.737	0.746	0.856	0.887	0.897	0.514	0.49	0.466	0.507	0.518
HARA	0.767	0.761	–	0.888	0.343	0.219	0.214	–	0.263	0.243	0.495	0.561	0.559	0.67	0.423	0.264	0.537	0.387	0.594	0.244
HCC-15	0.702	0.632	0.644	0.644	0.424	0.225	0.225	0.217	0.209	0.245	0.779	0.796	0.885	0.887	0.687	0.721	0.773	0.765	0.737	0.728
HCC-44	0.945	0.945	0.999	1.08	0.906	0.601	0.503	0.638	0.668	0.625	1.07	1.07	1.05	1.12	1.13	0.543	0.528	0.815	0.618	0.472
HCC-78	0.688	0.774	1.1	0.656	0.742	0.916	0.841	0.929	0.957	0.929	–	0.496	0.435	0.354	0.471	–	0.23	0.225	0.223	0.211
